Experimental data as given in patent US11179408B2, “Use of cyanoglucosides and pharmaceutical formulations thereof in the treatment of diabetes” (UNIVERSIDADE ESTADUAL PAULISTA JULIO DE MESQUITA FILHO, priority 2016, dated 2021).

How the values were obtained:
normal rats = conditions: oral, 200 mg/kg, 1 h after treatment; cited from earlier work
[1] = test system: alloxan-induced diabetic rats; conditions: oral, 50, 100 and 200 mg/kg; cited from earlier work
diabetic mice [2] = experiment: Fasting blood glucose in streptozotocin diabetic mice; type: in vivo, Male Swiss mice; conditions: for fasting blood glucose: streptozotocin diabetic mice, end of treatment, p<0.05
Procedure: The hydroalcoholic extract as obtained in Example 1 and the major compound lithospermoside (BH-21) as obtained in Example 2 were evaluated for their pharmacological activity in reducing fasting blood glucose and improving glucose tolerance in diabetic animals as described below.
(§1) The major compound of the cyanoglicoside fraction, BH-21 was tested at a concentration of 10 mg/kg in diabetic mice by gavage daily for 28 days. Male Swiss mice were divided into two groups and treated daily for 28 days by gavage: a control group (CTLSAL) that received saline vehicle (0.9% NaCl) and a group called streptozotocin, previously treated with this drug (150 mg/kg). Animals with blood glucose higher than 250 mg/dl were included in the study and divided into three experimental groups. One group, named streptozotocin saline (STZSAL) received saline (0.9% NaCl); another group of animals treated with metformin (STZMET) at the dose of 300 mg/kg and a third group (LITHOS) received the compound BH-21 (lithospermoside), diluted in saline at a dose of 10 mg/kg body weight.

diabetic mice [3] = experiment: Intraperitoneal glucose tolerance test (IPGTT) in diabetic mice; type: in vivo; conditions: streptozotocin diabetic mice; for IPGTT area under the curve (AUC): compared to CTLSAL group
Procedure: The leaves extract obtained under Example 1 was tested at a concentration of 400 mg/kg. The mice were treated daily for days by gavage with the extract as well as metformin (300 mg/kg), and at the end of treatment they underwent an […] glucose tolerance test.
The intraperitoneal glucose tolerance assay (IPGTT) was used to evaluate the glucose disappearance from the plasma of 8-10 hours fasted mice at time 0 and after glucose intraperitoneal injection (2 g/kg) in 15, 30, 60, 90 and 120 min as represented on FIG. 2A where curves represent: CTLSAL: normoglycemic mice treated orally with saline vehicle (0.9% NaCl), STZSAL: diabetic mice treated orally with saline vehicle (0.9% NaCl), STZMET: diabetic mice treated orally with metformin at the concentration of 300 mg/kg, STZEXT: diabetic mice treated orally with 70% EtOH extract at a concentration of 400 mg/kg. […] Data expressed as mean±standard error of the mean. ANOVA followed by Tukey post test. a vs. CTLSAL, b vs. STZSAL, c vs. STZMET, N=8-12, p<0.05.
as §1

[4] = 10 mg/kg by gavage daily for 28 days

C[C@@H]1O[C@@H](Oc2cc(O)c3c(=O)c(O[C@@H]4O[C@@H](C)[C@H](O)[C@@H](O)[C@H]4O)c(-c4ccc(O)cc4)oc3c2)[C@H](O)[C@H](O)[C@H]1O [kaempferitrin, kaempferol-3,7-O—(R)-dirhamnoside]
blood glucose lowering (normal rats): blood glucose lowering was observed only with the higher dose | hypoglycemic effect [1]: evident at all doses tested

N#C/C=C1/C=C[C@@H](O)[C@H](O)[C@H]1OC1OC(CO)C(O)C(O)C1O (stereo in doubt) [BH-21, (2Z)-2-[(4R,5S,6S)-4,5-dihydroxy-6-[[(2S,3S,4R,5R,6S)-3,4,5-trihydroxy-6-(hydroxymethyl)-2-oxanyl]oxy]-1-cyclohex-2-enylidene]acetonitrile]
in vivo hypoglycemic activity relative to metformin (diabetic mice [2]; higher than metformin): about 30 times | fasting blood glucose (diabetic mice [2]; [4]): significantly lower than in STZSAL and STZMET groups but greater than the CTLSAL group | IPGTT area under the curve (AUC) (diabetic mice [3]; [4]): no significant difference | IPGTT blood glucose values after intraperitoneal administration of glucose (diabetic mice [3]; 10 mg/kg daily for 28 days, vs metformin 300 mg/kg group, p<0.05): significantly lower than the STZMET group at all times

CN(C)C(=N)N=C(N)N [metformin]
fasting blood glucose (diabetic mice [2]; metformin 300 mg/kg daily for 28 days, vs CTLSAL): significantly increased | IPGTT area under the curve (AUC) (diabetic mice [3]; metformin 300 mg/kg daily for 28 days): no significant difference
